The results in this text go back to US6300337A, “Acetamide derivative and use thereof” (Nippon Kayaku Kabushiki Kaisha, priority 1998, dated 2001).

This experiment has as its target T1, human chymase (Homo sapiens, UniProt P23946).
T1 construct: 60 g human tonsillar gland was finely divided by scissors and a scalpel; from tissue; host or cells: human tonsillar gland
T1 sequence (P23946 22-247): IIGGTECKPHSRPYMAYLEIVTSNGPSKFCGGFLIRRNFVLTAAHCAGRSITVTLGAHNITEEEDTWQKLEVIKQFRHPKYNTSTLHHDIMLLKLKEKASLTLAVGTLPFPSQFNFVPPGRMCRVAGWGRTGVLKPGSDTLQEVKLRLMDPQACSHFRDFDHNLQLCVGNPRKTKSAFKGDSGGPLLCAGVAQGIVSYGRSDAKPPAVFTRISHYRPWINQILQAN
Kind of experiment: inhibitory activity on human chymase (angiotensin I as substrate, angiotensin II determined by HPLC). Type of experiment: biochemical. The following applies: for inhibitory activity on chymase (in words): chymase species not given; for IC50: first table, pH 8.0, 37° C., 15 min, read-out: 50% Inhibitory concentration (IC50) human chymase. The text has this:
It is known that chymase is present in tissues of various animals, and its isolation and purification methods are described in Anal. Biochem., 137, 449 (1984) and FEBS Letters, 323, 119 (1993). In the present invention, chymase was purified by the methods described in these literatures, and the present compounds were examined for inhibitory activity on human chymase or dog chymase. The specific methods are as follows:
60 g human tonsillar gland was finely divided by scissors and a scalpel, suspended in 0.1 M phosphate buffer (pH 8.0), and disrupted by a Polytron homogenizer for 5 minutes to prepare a crude chymase enzyme solution. The solution was centrifuged at 22000×g for 30 min, and the precipitate was used as a chymase enzyme fraction. The precipitate was washed by repeating the above procedure twice, and then suspended in 0.1 M phosphate buffer (pH 8.0) containing 2 M sodium chloride and 5% ammonium sulfate. The suspension was centrifuged at 27000×g for 20 min to give a supernatant as a chymase fraction. The supernatant was concentrated by ultrafiltration, applied to a G2000SW-XL column (6.0×300 mm), and eluted with 0.1 M phosphate buffer (pH 8.0). An active fraction decomposing succinyl leucyl leucyl valyl tyrosyl methylcoumarylamide (hereinafter referred to as the synthetic chymase substrate, made by Peptide Kenkyusho) was recovered, concentrated and used as a purified human chymase for the following activity measurement.
The inhibitory activity on the human chymase and dog chymase was measured using angiotensin I (made by Peptide Kenkyusho) for a substrate. 200 μl of 0.15 M Tris-HCl buffer (pH 8.0) containing 0.1 mM angiotensin I, 0.0002 μl of human or dog chymase solution and 2 μl of a dimethylsulfoxide solution of the present compound were added into a 1.5 ml test tube and incubated at 37° C. for 15 min. At the end of the reaction, produced angiotensin II was immediately determined by high performance liquid chromatography […] the chymase activity to calculate 50% inhibitory concentration (IC50: nM).
The test was conducted several times. Chymase was prepared for each test in the manner described above. The compounds prepared in the above-described Examples were used for the test.

Regarding `CC(=O)OCc1cnc(-c2ccccc2)n(CC(=O)NC(Cc2ccccc2)C(=O)C(=O)CCCOc2ccccn2)c1=O` (stereo not shown) [Compound 1, 2-(5-acetyloxymethyl-4-oxo-2-phenyl-3,4-dihydro-pyrimidin-3-yl)-N-{2,3-dioxo-1-phenylmethyl-6-(2-pyridyloxy)}hexylacetamide], the “inhibitory activity on chymase (in words)” value (“inhibitory activity” for short) was “powerful inhibitory activity on chymase” and the IC50 turned out to be 26 nM.

Consider `O=C(Cn1c(-c2ccccc2)ncc(CO)c1=O)NC(Cc1ccccc1)C(=O)C(=O)CCCOc1ccccn1` (stereo not shown) [Compound 2, 2-(5-hydroxymethyl-4-oxo-2-phenyl-3,4-dihydropyrimidin-3-yl)-N-{2,3-dioxo-1-phenylmethyl-6-(2-pyridyloxy)} hexylacetamide], for which the “inhibitory activity” value is listed as “powerful inhibitory activity on chymase” and the IC50 was found to be 27 nM.

With `CCOC(=O)c1cnc(-c2ccccc2)n(CC(=O)NC(Cc2ccccc2)C(=O)C(=O)CCCOc2ccccn2)c1=O` (stereo not shown) [Compound 4, 2-(5-ethoxycarbonyl-4-oxo-2-phenyl-3,4-dihydro-pyrimidin-3-yl)-N-{2,3-dioxo-1-phenylmethyl-6-(2-pyridyl-oxy)}hexylacetamide], the IC50 stood at 490 nM.

For the molecule `COCc1cnc(-c2ccccc2)n(CC(=O)NC(Cc2ccccc2)C(=O)C(=O)CCCOc2ccccn2)c1=O` (stereo not shown) [Compound 3, 2-(5-methoxymethyl-4-oxo-2-phenyl-3,4-dihydropyrimidin-3-yl)-N-{2,3-dioxo-1-phenylmethyl-6-(2-pyridyloxy)} hexylacetamide], the “inhibitory activity” value is “powerful inhibitory activity on chymase” and the IC50 was found to be 22 nM.
